According to patent publication US9868734B2, “Conjugate of benzofuranone and indole or azaindole, and preparation and uses thereof” (Luoda Biosciences, Inc., priority 2013, dated 2018):
Like-named read-outs stand apart in the source and are kept apart here.

Legend:
[1] = system: human lung adenocarcinoma epithelial cell line A549; assay: MTT assay, inhibition of tumor cell growth (A549); type: cell-based; conditions: 72 hours incubation, read-out: IC50 on the tumor cells A549
Procedure: (§1) human hepatocellular carcinoma cell line HepG-2, human lung adenocarcinoma epithelial cell line A549
(§2) Tumor cells were seeded in RPM11640 medium containing 10% calf serum, incubated at 37° C., 5% CO2 in CO2 incubator, and passaged every 2-3 days. Cells at logarithmic growth phase were used for this experiment.
(§3) The cells at logarithmic growth phase were formulated into suspension. The cell viability by trypan blue staining was more than 98%. The cell suspension was divided into several groups: 1 as blank control group (cell suspension plus solvent DMSO); and 2 as experimental groups (cell suspension plus compounds to be tested).
(§4) The drugs were formulated into a stock solution in DMSO, and the concentration of the stock solution was 20 mmol (used within 4 hours). In the experiment, the work solution of the drugs was diluted with RPMI1640 medium containing 10% calf serum under aseptic condition, to a final concentration of […]. The drug concentrations were increased by 2 times (1.25-20 μM).
(§5) The cells in logarithmic growth phase were selected, centrifuged, counted, and formulated into a cell suspension (2.5×10^4/ml) with RPMI1640 medium containing 10% calf serum. The cell suspension were inoculated into 96-well plates at a density of 5000 cells/200 μl per well, incubated for 24 hours at 37° C., 5% CO2. According to the above concentration of the drug, the cells were inoculated to 6 groups (including one control group), with 8 wells per group. After incubating for 72 hours, the viability of cells was measured by MTT assay. The absorbance value (A) was measured with detection wavelength at 540 nm, reference wavelength at 630 nm. The inhibitory rate (I) was calculated by the following equation, where T was the absorbance value of the experimental groups, and C was the absorbance value of the blank control group: I=(1−T/C)×100%
(§6) Equation of regression line was drawn from concentration-inhibitory rate curve, from which the IC50 of tested sample was calculated.

[2] = system: human hepatocellular carcinoma cell line HepG-2; assay: MTT assay, inhibition of tumor cell growth (HepG2); type: cell-based; conditions: 72 hours incubation, read-out: IC50 on the tumor cells HepG2
Procedure: as §1, §2, §3, §4, §5, §6

SMILES | IC50 [1] | IC50 [2] | IC50 ([1]; Homo sapiens) | IC50 ([2]; Homo sapiens)
O=C1Nc2ccncc2C1=C1C(=O)Oc2ccccc21 [Compound 121] | 11.6 ± 1.1 µM | 15.6 ± 1.2 µM | – | –
CCN1C(=O)C(=C2Oc3c(Cl)cccc3C2=O)c2cccnc21 [Compound 79] | 17.4 ± 1.7 µM | 31.5 ± 2.5 µM | – | –
CCN1C(=O)C(=C2Oc3ccc(Cl)cc3C2=O)c2cccc(F)c21 [Compound 20] | 1.8 ± 1 µM | 12 ± 1.4 µM | – | –
CON=C1C(=C2C(=O)Nc3c(F)cccc32)Oc2ccccc21 [Compound 50] | 7.7 ± 1.2 µM | 2.9 ± 0.5 µM | – | –
CCN1C(=O)C(=C2C(=O)Oc3ccccc32)c2cnccc21 [Compound 127, N-ethyl-1′-oxo-5-azaisoindigo] | 4.7 ± 0.9 µM | 8.4 ± 1.3 µM | – | –
CC(C)N1C(=O)C(=C2Oc3ccccc3C2=O)c2ccc(Cl)cc21 [Compound 12] | 14 ± 1.7 µM | 26 ± 2.7 µM | – | –
CCN1C(=O)/C(=C2\Nc3ccccc3C2=O)c2ccccc21 [Compound 154, 1-ethyl-indirubin, reference compound] | – | – | 19 ± 1.1 µM | 7.1 ± 0.7 µM
CC(C)N1C(=O)C(=C2Oc3ccccc3C2=O)c2cc(Cl)cnc21 [Compound 82] | 16 ± 2 µM | 18 ± 2.3 µM | – | –
CCN1C(=O)C(=C2Oc3ccc(Cl)cc3C2=NO)c2cccc(F)c21 [Compound 44] | > 100 µM | > 100 µM | – | –
O=C1C(=C2C(=O)N(Cc3ccccc3)c3ccc(F)cc32)Oc2ccccc21 [Compound 15] | 7.4 ± 1.7 µM | 34 ± 0.9 µM | – | –
O=C1Nc2c(F)cccc2C1=C1Oc2ccccc2C1=NO [Compound 26] | 5.4 ± 0.6 µM | 29 ± 1.8 µM | – | –
O=C1C(=C2Oc3ccccc3C2=NO)c2ccccc2N1Cc1ccccc1 [Compound 38, N1-benzyl-1′-oxo-indirubin-3′-oxime] | 9.05 ± 1.4 µM | 32.2 ± 1.5 µM | – | –
O=C1Nc2c(F)cccc2C1=C1Oc2ccccc2C1=O [Compound 2] | > 100 µM | – | – | –
CCN1C(=O)C(=C2Oc3ccccc3C2=NO)c2cccc(F)c21 [Compound 28] | 7 ± 1.3 µM | 30 ± 1.5 µM | – | –
CCN1C(=O)C(=C2Oc3ccccc3C2=NO)c2cc(F)ccc21 [Compound 42] | 15 ± 1.2 µM | 28 ± 2.5 µM | – | –
CC(C)N1C(=O)C(=C2Oc3ccccc3C2=NO)c2ccccc21 [Compound 32] | 10.5 ± 1.3 µM | 12.8 ± 1.6 µM | – | –
CON=C1C(=C2C(=O)Nc3ccccc32)Oc2ccccc21 [Compound 49] | 9.5 ± 0.6 µM | 4.8 ± 0.7 µM | – | –
CON=C1C(=C2C(=O)N(C(C)C)c3cc(Cl)ccc32)Oc2ccccc21 [Compound 54] | 12 ± 1.4 µM | 1.8 ± 1.9 µM | – | –
CON=C1C(=C2C(=O)N(Cc3ccccc3)c3ccccc32)Oc2ccccc21 [Compound 56, N1-benzyl-1′-oxo-indirubin-3′-oxime ether] | 7.1 ± 1.1 µM | 2.7 ± 1.2 µM | – | –
CCN1C(=O)C(=C2Oc3ccccc3C2=NO)c2cc(C)ccc21 [Compound 31] | 1.2 ± 0.8 µM | 2.8 ± 0.4 µM | – | –
O=C1Nc2ncccc2/C1=C1/Oc2ccccc2C1=O [Compound 75, 1′-oxo-7-azaindirubin] | – | – | 8 ± 1.2 µM | 10 ± 1.4 µM
CCN1C(=O)C(=C2Oc3ccccc3C2=O)c2ccccc21 [Compound 3] | 21.9 ± 0.9 µM | 26.4 ± 1.1 µM | – | –
CC(C)N1C(=O)C(=C2Oc3ccccc3C2=O)c2ccccc21 [Compound 8] | 10 ± 1.4 µM | 32.2 ± 2.4 µM | – | –
O=C1Oc2ccccc2C1=C1C(=O)N(C2OC(CO)C(O)C(O)C2O)c2ccccc21 (stereo not drawn) [Compound 112] | 90.1 ± 4.5 µM | > 100 µM | – | –
O=C1C(=C2C(=O)N(Cc3ccccc3)c3ccccc32)Oc2ccccc21 [Compound 14, N1-benzyl-1′-oxo-indirubin] | 7 ± 1.6 µM | 24 ± 1.5 µM | – | –
CN1C(=O)C(=C2Oc3ccccc3C2=O)c2cnccc21 [Compound 62] | 9.5 ± 2.1 µM | 11.5 ± 1 µM | – | –
CC(C)N1C(=O)C(=C2Oc3ccccc3C2=O)c2cc(F)ccc21 [Compound 9] | 18.5 ± 1.8 µM | 25 ± 1 µM | – | –
CC(C)N1C(=O)C(=C2Oc3ccccc3C2=O)c2cccc(F)c21 [Compound 10] | 8.1 ± 0.6 µM | 28.5 ± 1.3 µM | – | –
CCN1C(=O)C(=C2Oc3ccc(Cl)cc3C2=O)c2ccccc21 [Compound 19] | 16 ± 1.5 µM | 8 ± 1.5 µM | – | –
